Reference: patent US9758492B2, “IDO inhibitors” (Bristol-Myers Squibb Company, priority 2013, dated 2017)
pIC50: −log10 of the molar value.

target: T1, Human IDO1 (Homo sapiens, UniProt P14902); assay: IDO Kynurenine Assay with Human IDO1/HEK293 Cells; assay type: cell-based; settings: read-out: HEK human IDO-1 (IC50)
T1 construct: expressed in transfected cells; host or cells: HEK293
Experimental: IDO Kynurenine Assay with Human IDO1/HEK293 Cells
Human IDO1/HEK293 cells were seeded at 10,000 cells per 50 uL per well with RPMI/phenol red free media contains 10% FBS in a 384-well black wall clear bottom tissue culture plate (Matrix Technologies LLC) 125 nL of certain concentration of compound was then added to each well using ECHO liquid handling systems. The cells were incubated for 20 hours in 37° C. incubator with 5% CO2.
The compound treatments were stopped by adding Trichloroacetic Acid (Sigma-Aldrich) to a final concentration at 0.2%. The cell plate was further incubated at 50° C. for 30 minute. The equal volume supernatant (20 uL) and 0.2% (w/v) Ehrlich reagent (4-dimethylaminobenzaldehyde, Sigma-Aldrich) in glacial acetic acid were mixed in a new clear bottom 384-well plate. This plate was then incubated at room temperature for 30 minute. The absorbance at 490 nm was measured on Envision plate reader.
Compound IC50 values were calculated using the counts of 500 nM of a reference standard treatment as one hundred percent inhibition, and counts of no compound but DMSO treatment as zero percent inhibition.

T1 sequence (P14902 whole entry): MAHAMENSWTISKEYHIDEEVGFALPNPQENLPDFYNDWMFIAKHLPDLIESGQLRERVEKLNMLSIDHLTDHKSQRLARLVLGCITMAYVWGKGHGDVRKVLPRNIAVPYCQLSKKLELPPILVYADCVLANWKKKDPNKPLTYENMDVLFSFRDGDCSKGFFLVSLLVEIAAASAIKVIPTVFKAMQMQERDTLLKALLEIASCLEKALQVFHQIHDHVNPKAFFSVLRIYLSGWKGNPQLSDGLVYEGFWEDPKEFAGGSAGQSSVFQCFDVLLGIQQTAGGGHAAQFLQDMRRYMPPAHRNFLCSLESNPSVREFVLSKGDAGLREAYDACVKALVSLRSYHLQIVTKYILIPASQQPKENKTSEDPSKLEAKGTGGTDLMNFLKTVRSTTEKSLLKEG

SMILES | pIC50
COCCN(c1ccc(-c2cc(F)ccc2C(=O)O)cc1NC(=O)Nc1ccc(Cl)cc1F)C1CCCCC1 [Example 451] | 8.76
[2H]C([2H])(C(C)C)N(c1ccc(-c2ccccc2-c2nnn[nH]2)cc1NC(=O)Nc1ccc(C)cc1)C([2H])([2H])C(C)C [Example 424] | 8.28
Cc1ccc(NC(=O)Nc2cc(-c3cccc(C)c3C(=O)O)ccc2N(CC(C)C)CC(C)C)cc1 [Example 536, 4′-(Diisobutylamino)-3-methyl-3′-(3-(p-tolyl)ureido)-[1,1′-biphenyl]-2-carboxylic acid] | 7.15
CC(C)CN(c1ccc(-c2cc(F)ccc2C(=O)O)cc1NC(=O)Nc1ccc2nccn2c1)C1CCCCC1 [Example 407] | 5.51
CC(C)CN(c1cc(F)c(-c2cc(F)ccc2C(=O)O)cc1NC(=O)Nc1ccc2nccnc2c1)C1CCCCC1 [Example 403] | 8.63
CC(C)CN(c1cc(F)c(-c2cc(F)ccc2C(=O)O)cc1NC(=O)Nc1ccc(C(F)(F)F)cc1F)C1CCCCC1 [Example 392] | 8.00
CCC(CC)N(CC(C)C)c1ccc(-c2cc(F)ccc2C(=O)O)cc1NC(=O)Nc1ccccc1F [Example 450] | 8.26
Cc1ccc(NC(=O)Nc2cc(-c3ccccc3-c3nnn[nH]3)ccc2N(CCOC(C)C)CC(C)C)cc1 [Example 465] | 6.70
Cc1cc(NC(=O)Nc2cc(-c3ccccc3-c3nnn[nH]3)ccc2N(CC(C)C)CC(C)C)on1 [Example 396] | 8.22
CC(C)CN(CC(C)C)c1ccc(-c2ccccc2-c2nnn[nH]2)cc1NC(=O)Nc1cc(C(F)(F)F)no1 [Example 398] | 8.01
CC(C)CN(CC(C)C)c1ccc(-c2ccccc2-c2nnn[nH]2)cc1NC(=O)Nc1ccc(OC(F)F)cc1 [Example 453] | 8.00
Cc1ccc(NC(=O)Nc2cc(-c3cc(F)ccc3C(=O)O)ccc2N(CC(C)C)C2CCCCC2)cn1 [Example 399] | 7.70
Cc1ccc(NC(=O)Nc2cc(-c3ccccc3-c3nnn[nH]3)ccc2N(CC(C)C)CC(C)C)cn1 [Example 395] | 7.15
COc1cccc(-c2ccc(N(CC(C)C)CC(C)C)c(NC(=O)Nc3ccc(Cl)cc3F)c2)c1C(=O)O [Example 500] | 7.70
CC(C)CN(c1cc(F)c(-c2cc(F)ccc2C(=O)O)cc1NC(=O)Nc1ccc(C2CCCCC2)cc1)C1CCCCC1 [Example 523, 4′-(Cyclohexyl(isobutyl)amino)-5′-(3-(4-cyclohexylphenyl)ureido)-2′,5-difluoro-[1,1′-biphenyl]-2-carboxylic acid] | 5.26
CCOc1ccc(NC(=O)Nc2cc(-c3cc(F)ccc3C(=O)O)ccc2N(C2CC2)C2CC2)cc1 [Example 543] | 5.14
CC(C)CN(c1cc(F)c(-c2cc(F)ccc2C(=O)O)cc1NC(=O)Nc1ccc2c(c1)OCO2)C1CCC(F)(F)CC1 [Example 531, 5′-(3-(Benzo[d][1,3]dioxol-5-yl)ureido)-4′-((4,4-difluorocyclohexyl)(isobutyl)amino)-2′,5-difluoro-[1,1′-biphenyl]-2-carboxylic acid] | 7.70
CCC(CC)N(CC(C)C)c1ccc(-c2ccccc2C(=O)O)cc1NC(=O)Nc1ccc(C)cc1 [Example 443] | 8.00
CC(C)CN(c1ccc(-c2cc(F)ccc2C(=O)O)cc1NC(=O)Nc1cncnc1)C1CCCCC1 [Example 397] | 8.00
CC(C)CN(c1ccc(-c2cc(F)ccc2C(=O)O)cc1NC(=O)Nc1ccc2nn(C)cc2c1)C1CCCCC1 [Example 409] | 6.96
COCCN(c1ccc(-c2ccccc2C(=O)O)cc1NC(=O)Nc1ccc(C)cc1)C1CCCCC1 [Example 445] | 7.30
CC(C)CN(CC(C)C)c1cc(F)c(-c2cc(F)ccc2C(=O)O)cc1NC(=O)Nc1ccc(Cl)cc1F [Example 428] | 8.74
CC(C)CN(c1cc(F)c(-c2cc(F)ccc2C(=O)O)cc1NC(=O)Nc1ccc(N2CCOCC2)cc1)C1CCCCC1 [Example 524, 4′-(Cyclohexyl(isobutyl)amino)-2′,5-difluoro-5′-(3-(4-morpholinophenyl)ureido)-[1,1′-biphenyl]-2-carboxylic acid] | 5.57
Cc1ccc(NC(=O)Nc2cc(-c3ccccc3C(=O)O)ccc2N(CCCC(F)(F)F)C2CCCCC2)cc1 [Example 416] | 7.00
Cc1cnc(NC(=O)Nc2cc(-c3ccccc3-c3nnn[nH]3)ccc2N(CC(C)C)CC(C)C)cn1 [Example 308, 1-(4-(diisobutylamino)-2′-(2H-tetrazol-5-yl)-[1,1′-biphenyl]-3-yl)-3-(5-methylpyrazin-2-yl)urea] | 6.57

The remaining lines, values ahead:

pIC50 | SMILES
8.65 | CCC(CC)N(CC(C)C)c1ccc(-c2cc(F)ccc2C(=O)O)cc1NC(=O)Nc1ccc(Cl)cc1F [Example 442]
5.98 | CC(C)CN(c1ccc(-c2cc(F)ccc2C(=O)O)cc1NC(=O)Nc1cnc2c(c1)ncn2C)C1CCCCC1 [Example 487]
5.76 | CCOc1ccc(NC(=O)Nc2cc(-c3ccccc3-c3nnn[nH]3)ccc2N(C2CC2)C2CC2)cc1 [Example 544]
8.05 | Cc1ccc(NC(=O)Nc2cc(-c3cc(F)ccc3C(=O)O)c(F)cc2N(CC(C)C)CC(C)C)cc1 [Example 426]
8.00 | CC(C)CN(CC(C)C)c1ccc(-c2cccc(OC(F)(F)F)c2C(=O)O)cc1NC(=O)Nc1ccc(Cl)cc1F [Example 496]
8.71 | Cc1ccc(NC(=O)Nc2cc(-c3ccccc3-c3nnn[nH]3)cc(F)c2N(CC(C)C)C2CCCCC2)cc1 [Example 433]
7.22 | CCOc1ccc(NC(=O)Nc2cc(-c3cc(F)ccc3C(=O)O)c(F)cc2N(CC(C)C)C2C[C@H]3CC[C@@H]2C3)cc1 (stereo partly shown) [Example 412]
5.54 | Cc1c(Br)cc(NC(=O)Nc2cc(-c3cc(F)ccc3C(=O)O)ccc2N(CC(C)C)C2CCCCC2)cc1Br [Example 507, 4′-(Cyclohexyl(isobutyl)amino)-3′-(3-(3,5-dibromo-4-methylphenyl)ureido)-5-fluoro-[1,1′-biphenyl]-2-carboxylic acid]
7.22 | CCOc1ccc(NC(=O)Nc2cc(-c3cccc(C)c3C(=O)O)ccc2N(CC(C)C)CC(C)C)cc1 [Example 545]
5.76 | Cc1ccc(NC(=O)Nc2cc(-c3cc(F)ccc3C(=O)O)ccc2N(CCOC(C)C)CC(C)C)cc1 [Example 466]
6.70 | Cc1cc(NC(=O)Nc2cc(-c3cc(F)ccc3C(=O)O)c(F)cc2N(CC(C)C)[C@@H]2C[C@H]3CC[C@@H]2C3)no1 [Example 385]
8.61 | COCCN(c1ccc(-c2ccccc2-c2nnn[nH]2)cc1NC(=O)Nc1ccc(C)cc1)C1CCCCC1 [Example 446]
8.37 | C=C(C)CN(c1ccc(-c2cc(F)ccc2C(=O)O)cc1NC(=O)Nc1ccc(C)cc1)C1CCCCC1 [Example 461]
8.63 | CCOc1ccc(NC(=O)Nc2cc(-c3ccccc3-c3nnn[nH]3)ccc2N(CC(C)C)CC(C)C)cc1 [Example 454]
5.90 | COc1cccc(-c2ccc(N(CC(C)C)CC(C)C)c(NC(=O)Nc3ccc(C#N)nc3)c2)c1C(=O)O [Example 499]
7.30 | CC(C)CN(c1cc(F)c(-c2cc(F)ccc2C(=O)O)cc1NC(=O)Nc1ccc(C#N)cc1)C1C[C@H]2CC[C@@H]1C2 (stereo partly shown) [Example 411]
5.59 | CC(C)CN(c1cc(F)c(-c2cc(F)ccc2C(=O)O)cc1NC(=O)Nc1ccc2nccn2c1)C1CCCCC1 [Example 404]
8.94 | CCC(CC)N(CC(C)C)c1ccc(-c2ccccc2-c2nnn[nH]2)cc1NC(=O)Nc1ccc(Cl)cc1F [Example 441]
